Measurements taken from US20160010138A1, “RAPID DETERMINATION OF MICROBIAL DROWTH AND ANTIMICROBIAL SUSEPTABILITY” (priority 2013, published 2016).
Like-named read-outs stand apart in the source and are kept apart here.

Assays:
[1] = system: heat-killed cells and isopropyl alcohol killed cells; test: Esterase activity indicator fluorescence in killed cells (MADM system); format: cell-based
Description: (§1) Physiologic indicators of active bacteria include indicators of growth, responsiveness to external stimulus, transcription, translation, energy dependent activity, enzyme activity, and an intact permeability barrier. The indicators tested experimentally were grouped according to the following functional categories of physiologic states to which they are responsive, which included indicators of respiratory and metabolic activity, and membrane integrity.
Carboxyfluorescein diacetate/carboxyfluorescein diacetate succinimidyl ester (CFDA/CFDA-SE; Molecular Probes) compounds are converted into amine-reactive fluorescent molecules when cleaved by esterases present within active cells. When CFDA-SE is taken up by live cells, the fluorescent molecule produced by esterase cleavage and amine reaction is retained inside the cell. […] The product formed by uptake and processing of CFDA, on the other hand, should be more “leaky” over time and may exit a dead cell. […] Shorter delay times have not yet been investigated but may be compatible with avoiding false positive results while providing a shorter assay period.

[2] = system: Enteric; test: MADM (BACcel) phenotype/sensitivity by growth analysis, surveillance mini-BAL; format: cell-based; details: Spec# 005-D7, BACcel ID Enteric, 1.26 × 10^5 CFU/ml
Procedure: (§2) Adult MICU patients with identified surrogate were included within 72 hours of intubation and if anticipated to require MV for >48 h. Moribund state or pregnancy were exclusions. Surveillance mini-BAL (Combicath, Plastimed) was performed on Day 1, 3, 5, 7 and 10 of MV. Samples were split and processed for both a) routine respiratory quantitative microbiological culture and sensitivity assays (>48 h result availability) and b) rapid (<8 hour) flowcell/surface-capture assays using the MADM system. Viable microorganisms were identified using growth analysis enhanced by a focused VAP antibody panel (S. aureus, P. aeruginosa, A. baumannii). Untypable organisms were also reported. Sensitivity was assessed using growth analysis. Attending physicians were blinded to MADM system results.
BAL sample were prepared, removing debris and separating microorganisms from other sample material. Sample microorganisms were introduced into a multichannel fluidic cassette as described elsewhere herein. […]
The automated digital microscopy system was used to perform darkfield imaging of 10 fields of view every 10 minutes for 180 minutes in each flowcell channel. […] Quantitation was performed by counting identified microorganisms and computing original specimen CFU/mL.

[3] = system: Steno; test: as above; format: cell-based, S. maltophilia
Procedure: as §2
(§3) BAL sample were prepared, removing debris and separating microorganisms from other sample material. Sample microorganisms were introduced into a multichannel fluidic cassette as described elsewhere herein. Bacteria were concentrated and retained on the lower surface of all flowcells using low-voltage electrical field (5 min) Antibody labeling of bacteria in flowcells was used to aid identification.
(§4) The automated digital microscopy system was used to perform darkfield imaging of 10 fields of view every 10 minutes for 180 minutes in each flowcell channel. Initial epifluorescence imaging was also performed for antibody detection. […] Identification consisted of probability scores based on microorganism morphology and growth rates. Antibody labeling identification data was also incorporated. Observed microorganisms were then classified as STAU, PSAE, or non-target. Antibiotic responses were used to aid identification when appropriate. Quantitation was performed by counting identified microorganisms and computing original specimen CFU/mL.

[4] = system: Pseudomonas aeruginosa (PSAE); test: MADM system resistance phenotype tests on respiratory specimens; format: cell-based; details: for resistance phenotype result (S/R), MADM: ID PSAE; for resistance phenotype result (S/R), MADM: key: S: susceptible; R: resistant
Procedure: (§5) These specimens were prepped for introduction into the MADM system. The system performed quantitative ID for Staphylococcus aureus (STAU), Pseudomonas aeruginosa (PSAE), and Acinetobacter spp. (ABCC). Concurrent quantitative culture was performed on specimens. The MADM system performed resistance phenotype tests on STAU-containing specimens for cefoxitin (FOX) MRSA phenotyping and clindamycin (CLI) resistance. The system tested ABCC- and PSAE-containing specimens for amikacin (AN) and imipenem (IMP) resistance.
(§6) Specimen preparation used a brief procedure to release bacteria, reduce imaging background, and suspend bacteria in a low ionic strength buffer. […] The remaining 62 specimens were tested using the MADM system.
(§7) 20 μL samples of prepared specimen were pipetted into independent flowcell channels and a low-voltage electrical field was applied for 5 minutes. The electrical field concentrated bacteria onto a functional surface coating that immobilized the bacteria on the lower flowcell surface. Each flowcell channel received only one type of test reagent solution that contained a selective agent if required (only for channels used to test AB, sulbactam 32 μg/mL).
(§8) The instrument acquired images at 10-minutes intervals for 180 minutes, using 10 fields of view in each flowcell channel through a 20× objective. Imaging used darkfield illumination. Identification variables included response to selective agents (AB with sulbactam), cell morphology, growth morphology, and growth rate.
(§9) Identification algorithms applied to each individual immobilized bacterial cell. The system measured the amount of change in mass over time to compute growth rates. Identification consisted of computing and combining probability scores for morphology, response to selective media, and growth rates to produce a receiver operating characteristic curve (ROC) to derive classification criteria.

[5] = system: Acinetobacter spp. (ABCC); test: as above; format: cell-based, Acinetobacter sp. For resistance phenotype result (S/R), MADM: key: S: susceptible; R: resistant.
Procedure: as §5, §6, §7, §8, §9

[6] = system: Pseudomonas aeruginosa (PSAE); format: cell-based; details: ID PSAE, culture result; note: key: S: susceptible; R: resistant
Description: A total of 281 de-identified remnant respiratory specimens were collected from hospital and commercial sources. The specimens included 25 endotracheal aspirates (ETA) of unknown age obtained from a specimen vendor. Also included were 230 mini-bronchoalveolar lavage (mini-BAL) and 26 ETA specimens obtained from Denver Health Medical Center (DHMC). DHMC specimens were 7-21 days old. AST results were available for all mini-BAL specimens but not for ETA. Accompanying reports also included semi-quantitative ID used to select 92 bacteria-positive specimens for analysis using the MADM system. Targets included Pseudomonas aeruginosa, Acinetobacter baumannii complex, and Staphylococcus aureus. Controls used standard culturing methods (Cx).
as §5

[7] = system: E. coli; test: Membrane potential indicator staining; format: cell-based; details: 10 µg/ml DiBAC4(3), 15 min, room temp
Description: as §1
Active bacterial cells maintain a proton gradient across their cell membranes, creating a membrane potential that may be measured using fluorescent dyes. However, the dyes used in this study to evaluate membrane potential are toxic to bacteria and can only be used as an endpoint assay.
DiBAC4(3) (Molecular Probes) is an anionic dye that enters depolarized cells (i.e., cells lacking a membrane potential) and fluoresces in the […] channel when it binds to intracellular proteins or membranes. Using this indicator, 18.5% of an overnight refrigerator stock (control) and 95% of heat-killed E. coli stained with 10 µg/ml DiBAC4(3) after a 15 min incubation period at room temp.

[8] = system: Klebsiella pneumoniae (KP) clinical isolates; test: KPC assay: growth in ertapenem with and without boronic acid inhibitor (MADM); format: cell-based
Procedure: The bottom surface was coated with poly-L-lysine to immobilize live bacteria.
Clinical isolates of Pseudomonas aeruginosa (PA), Acinetobacter baumannii (AB), and Klebsiella pneumoniae (KP) were tested. […] Test results are expressed as nonsusceptible (NS) or susceptible (S).
Isolates were grown on blood agar, suspended colonies in tryptic soy broth for 2 hours, then centrifuged and resuspended log-phase bacteria in low ionic strength electrokinetic buffer.
MADM system analysis was performed using a 32-channel disposable fluidic cassette (FIG. 4A) to measure growth of immobilized bacteria. […] Klebsiella pneumoniae (KP) clinical isolates were tested for ertapenem (ETP) nonsusceptibility at 16 μg/mL with and without the inhibitors aminophenyl boronic acid (APB) at 300 μg/mL or benzo(b)thiophene-2-boronic acid (BTB) at 50 μg/mL to identify putative KPC-positive strains.
10 μL aliquots of 5E+7 CFU/mL were pipetted into separate flowcells for each isolate and test condition. Microorganisms were electrokinetically concentrated onto the flowcell detection surface with an electrical field to the positively charged lower surface to immobilize cells and yield 10-100 bacteria per field of view (FIG. 4B). […] The system measured growth at 10-minute intervals. […] Growth was evaluated, interpreting results for PA, AB, and KP-ETP as NS if growth had not arrested within 3 hours. […]

[9] = system: Staphylococcus aureus (STAU); test: Culture (Cx) / hospital AST comparator on respiratory specimens; format: cell-based; details: for resistance phenotype result (S/R), Cx: ID STAU, culture result, MRSA by oxacillin; for resistance phenotype result (S/R), Cx: key: S: susceptible; R: resistant
Procedure: DHMC specimens were 7-21 days old. […] Controls used standard culturing methods (Cx).
(§10) (ABCC). Concurrent quantitative culture was performed on specimens.

[10] = system: STAU; test: MADM (BACcel) phenotype/sensitivity by growth analysis, surveillance mini-BAL; format: cell-based, S. aureus
Procedure: as §2, §3, §4

[11] = system: Staphylococcus aureus (STAU); test: MADM system resistance phenotype tests on respiratory specimens; format: cell-based; details: ID STAU, MRSA by FOX
Procedure: as §10
Specimen preparation used a brief procedure to release bacteria, reduce imaging background, and suspend bacteria in a low ionic strength buffer. […] We rejected 10 samples with heavy interfering background when dilution to OD600=0.3 yielded organism counts inadequate for analysis. We rejected 7 samples for other technical deficiencies. The remaining 62 specimens were tested using the MADM system.
as §7, §8, §9

[12] = dyes added immediately after heat or isopropyl alcohol treatment
[13] = Spec# 006-D1, BACcel ID Steno, 7.68 × 10^5 CFU/ml
[14] = Spec# 006-D3, BACcel ID Steno, 1.60 × 10^4 CFU/ml

carboxyfluorescein diacetate succinimidyl ester [CFDA-SE]
fluorescence of killed cells [1, 12]: demonstrated fluorescence | fluorescence of killed cells ([1]; two hour post-heat-kill delay): no fluorescence was observed

CC(C)(O/N=C(\C(=O)N[C@@H]1C(=O)N2C(C(=O)[O-])=C(C[n+]3ccccc3)CS[C@H]12)c1csc(N)n1)C(=O)O [CAZ, ceftazidime]
Phenotype, sensitivity (growth in antibiotic) [2]: all growth | Phenotype, sensitivity (growth in antibiotic) [3, 13]: growth, TZP- | Phenotype, sensitivity (growth in antibiotic) [3, 14]: growth, TZP-

NCC[C@H](O)C(=O)N[C@@H]1C[C@H](N)[C@@H](O[C@H]2O[C@H](CN)[C@@H](O)[C@H](O)[C@H]2O)[C@H](O)[C@H]1O[C@H]1O[C@H](CO)[C@@H](O)[C@H](N)[C@H]1O [AN, amikacin]
susceptibility of all PSAE ([4]; all PSAE-containing respiratory specimens): susceptible | resistance phenotype result (S/R), MADM ([4]; specimen DH 430, Mini-BAL): S | resistance phenotype result (S/R), MADM ([4]; specimen DH 554, BAL): S | resistance phenotype result (S/R), MADM ([4]; specimen DH 641, Mini-BAL): S | resistance phenotype result (S/R), MADM ([5]; ABCC-positive specimen (specimen name not given)): S | susceptibility of all ABCC ([5]; all ABCC-containing respiratory specimens): susceptible | Phenotype, sensitivity (growth in antibiotic) [3, 13]: growth, TZP- | Phenotype, sensitivity (growth in antibiotic) [3, 14]: growth, TZP- | resistance phenotype result (S/R), Cx ([6]; specimen DH 430, Mini-BAL): S | resistance phenotype result (S/R), Cx ([6]; specimen DH 554, BAL): S | resistance phenotype result (S/R), Cx ([6]; specimen DH 641, Mini-BAL): S

CCCCN1C(=O)C(=CC=Cc2c(O)n(CCCC)c(=O)n(CCCC)c2=O)C(=O)N(CCCC)C1=O [DiBAC4(3)]
cells stained ([7]; heat-killed E. coli): 95% | cells stained ([7]; overnight refrigerator stock (control) E. coli): 18.5%

C[C@@H](O)[C@H]1C(=O)N2C(C(=O)O)=C(S[C@@H]3CN[C@H](C(=O)Nc4cccc(C(=O)O)c4)C3)[C@H](C)[C@H]12 [ETP, ertapenem]
growth of susceptible (KPC-negative) strains ([8]; ETP at 16 μg/mL (FIG. 21)): fail to grow | growth morphology during drug exposure ([8]; KPC clinical isolate, ETP 16 μg/mL, 20 and 90 min of exposure (FIG. 20)): abnormal growth morphology

Cc1onc(-c2ccccc2)c1C(=O)N[C@@H]1C(=O)N2[C@@H]1SC(C)(C)[C@@H]2C(=O)O [OXA, oxacillin]
resistance phenotype result (S/R), Cx ([9]; specimen DH 425, Mini-BAL): S | resistance phenotype result (S/R), Cx ([9]; specimen DH 427, Mini-BAL): S | resistance phenotype result (S/R), Cx ([9]; specimen DH 439, Mini-BAL): R | resistance phenotype result (S/R), Cx ([9]; specimen DH 440, BAL): S | resistance phenotype result (S/R), Cx ([9]; specimen DH 457, BAL): S | resistance phenotype result (S/R), Cx ([9]; specimen DH 485, BAL): S | resistance phenotype result (S/R), Cx ([9]; specimen DH 509, BAL): S | resistance phenotype result (S/R), Cx ([9]; specimen DH 514, Mini-BAL): S | resistance phenotype result (S/R), Cx ([9]; specimen DH 543, BAL): S | resistance phenotype result (S/R), Cx ([9]; specimen DH 550, BAL): S | resistance phenotype result (S/R), Cx ([9]; specimen DH 556, Mini-BAL): S | resistance phenotype result (S/R), Cx ([9]; specimen T12, ETA): R | MRSA/MSSA call by oxacillin MIC (hospital AST) ([9]; the one discordant STAU sample): MSSA

CCC[C@@H]1C[C@@H](C(=O)N[C@@H]([C@H]2O[C@H](SC)[C@H](O)[C@@H](O)[C@H]2O)[C@H](C)Cl)N(C)C1 [CLI, clindamycin]
Phenotype, sensitivity ([10]; Spec# 008-D7, BACcel ID STAU, 1.11 × 10^6 CFU/ml): (MRSA) CLI-R | Phenotype, sensitivity ([10]; Spec# 033-D7, BACcel ID STAU, 6.64 × 10^4 CFU/ml): MRSA, CLI-R | resistance phenotype result (S/R), MADM ([11]; specimen DH 425, Mini-BAL): S | resistance phenotype result (S/R), MADM ([11]; specimen DH 427, Mini-BAL): S | resistance phenotype result (S/R), MADM ([11]; specimen DH 439, Mini-BAL): S | resistance phenotype result (S/R), MADM ([11]; specimen DH 440, BAL): S | resistance phenotype result (S/R), MADM ([11]; specimen DH 457, BAL): S | resistance phenotype result (S/R), MADM ([11]; specimen DH 485, BAL): S | resistance phenotype result (S/R), MADM ([11]; specimen DH 509, BAL): S | resistance phenotype result (S/R), MADM ([11]; specimen DH 514, Mini-BAL): S | resistance phenotype result (S/R), MADM ([11]; specimen DH 543, BAL): S | resistance phenotype result (S/R), MADM ([11]; specimen DH 550, BAL): S | resistance phenotype result (S/R), MADM ([11]; specimen DH 556, Mini-BAL): S | resistance phenotype result (S/R), MADM ([11]; specimen T12, ETA): S | resistance phenotype result (S/R), Cx ([9]; specimen DH 425, Mini-BAL): S | resistance phenotype result (S/R), Cx ([9]; specimen DH 427, Mini-BAL): S | resistance phenotype result (S/R), Cx ([9]; specimen DH 439, Mini-BAL): S | resistance phenotype result (S/R), Cx ([9]; specimen DH 440, BAL): S | resistance phenotype result (S/R), Cx ([9]; specimen DH 457, BAL): S | resistance phenotype result (S/R), Cx ([9]; specimen DH 485, BAL): S | resistance phenotype result (S/R), Cx ([9]; specimen DH 509, BAL): S | resistance phenotype result (S/R), Cx ([9]; specimen DH 514, Mini-BAL): S | resistance phenotype result (S/R), Cx ([9]; specimen DH 543, BAL): S | resistance phenotype result (S/R), Cx ([9]; specimen DH 550, BAL): S | resistance phenotype result (S/R), Cx ([9]; specimen DH 556, Mini-BAL): S | resistance phenotype result (S/R), Cx ([9]; specimen T12, ETA): S

Carboxyfluorescein diacetate [CFDA]
fluorescence of killed cells [1, 12]: demonstrated fluorescence
